Measured values as given in patent publication US20060121449A1, “Method for selection of compounds which inhibit clonal cell growth and use thereof” (priority 2002, published 2006).
Values joined by “and” are separate entries in the source; they are usually repeats but may differ in a detail not shown here. Equal entries are not always repeated. “Also recorded” adds a separate entry of the source. Where two headings read alike, the source gives them in different places.

Key:
[1] = tested on: Ehrlich ascites tumour; conditions: for Rescue of mice from transplanted Ehrlich tumour: suboptimal (moderate) dose alone, started the day after transplantation
Method: Tumour cells harvested from ascitic mouse were mainly solitary.
The experiment describes transplantation of the malignant mouse Ehrlich ascites tumour to two adult male mice (NMRI/Bom). Each of them received 100000 cells intraperitonally. One mouse was treated two times a week with 4-OH-OPB intraperitonally.
Cells were injected 90 minutes after the addition of 4-OH-OPB to the suspension. The control received the same cell suspension without 4-OH-OPB.
At the same time, dilutions of 4-OH-OPB were injected intraperitonally to the transplanted mice in order to find the smallest active dose.
The cells from ascites in the untreated control mouse was frozen on serum with 10% DMSO. The cells were thawed in water of 37° C., diluted in serum, and pelleted by low speed centrifugation after the addition of 2 ml FBS, to remove DMSO.
Each animal received such cells suspended in portions of 1 ml in RPMI (pH˜6.9).
The frozen and thawed Ehrlich ascites cells are diluted in a volume of 1 ml RPMI (pH˜6.9) for each animal. No calf serum was added to the medium to avoid immunisation of the mice.
Cell number: 90000 tumour cells in 0.7 ml RPMI were injected intraperitonally to each animal.
The total cell number in the ampoule was 7.5 million cells. The cells were thawed, and 2 ml FBS was added before low speed centrifugation. […] Than separate vessels were prepared for each animal. The cell tube for animal number 3 received Colchicine as indicated in the table on day 0 one hour before the cells were injected.
After mixing the same volume was transferred from this tube to the last tube.
The content of the last two tubes was injected intraperitonally to each of the mice number 1 and 2 respectively.

[2] = tested on: polyoma virus transformed BHK21/c13 cells, line S100T1; assay: Collocation inhibition test: clonal growth in sparsely and densely seeded areas of a cell density gradient of S100T1 cells in soft agar (Exp 13, 17, 19-26);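 note: soft agar cultures in 24-well plates with a cell density gradient in the top layer, compounds applied from DMSO stocks, clonal growth scored in sparse versus dense areas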
[3] = Exp 7, 1.62 μl 20 mM i.p. two times a week, 45.5 at day 0
[4] = Exp 8 mouse 1: 1.26 μl 20 mM i.p. from day 0 (42 μM i.p.)
[5] = Exp 8 mouse 2: 0.42 μl 20 mM i.p. from day 0 (14 μM i.p.)
[6] = Exp 8 mouse 3: 0.14 μl 20 mM i.p. from day 0 (4.7 μM i.p.)
[7] = Exp 8 mouse 4: 0.047 μl 20 mM i.p. from day 0 (1.6 μM i.p.)
[8] = Exp 8 mouse 6: 1.13 μl 20 mM i.p., first injection 24 h after tumour (37.7 μM i.p.)
[9] = Exp 8 mouse 7: 1.09 μl 20 mM i.p., first injection 3 days after tumour
[10] = Exp 8 mouse 7: 1.09 μl 20 mM i.p., first injection 3 days after tumour (36.3 μM i.p.)
[11] = Exp 8 mouse 7: 1.09 μl 20 mM i.p., first injection 3 days after tumour (36.3 μM i.p.), listed as 4-OH—OPB
[12] = Exp 13, 4-OH-OPB 1-3 μM, Colchicine 0.01-0.1 μM
[13] = Exp 13, Low inhibitor conc. (4-OH—OPB 1 μM, Colchicine 10 nM), H: high cell density area
[14] = Exp 13, Low inhibitor conc. (4-OH—OPB 1 μM, Colchicine 10 nM), L: low cell density area
[15] = Exp 13, Medium inhibitor conc. (4-OH—OPB 3 μM, Colchicine 33 nM), H: high cell density area
[16] = Exp 13, Medium inhibitor conc. (4-OH—OPB 3 μM, Colchicine 33 nM), L: low cell density area
[17] = Exp 19, 120000 S100T1 cells/well

CCCCC1(O)C(=O)N(c2ccccc2)N(c2ccc(O)cc2)C1=O (stereo not drawn) [4-OH-OPB, 4-butyl-4-hydroxy-2(p-hydroxyphenyl)-1-phenyl-3,5-pyrazolidinedione]
Weight of treated mouse, day 14 [1, 3]: 42.6 g | Weight of treated mouse, day 18 [1, 3]: 44.3 g | Tumour findings in treated mouse after 19 days ([1]; Exp 7, 1.62 μl 20 mM i.p. two times a week, 100000 Ehrlich cells i.p.): No tumour was detected; also recorded: completely normal without any palpable tumour or signs of ascites or anaemia; also recorded: no pathological signs; also recorded: no tumour or ascites observable | Ascites ([1]; Exp 7 treated animal, day 19): 0 grams | Fibrinous material under diaphragm ([1]; Exp 7 treated animal, day 19): 0 grams | Size of organs: Hart ([1]; Exp 7 treated animal, day 19): 0.20 grams | Size of organs: Kidneys ([1]; Exp 7 treated animal, day 19): 0.57 grams | Size of organs: Liver ([1]; Exp 7 treated animal, day 19): 2.38 grams | Size of organs: Lungs ([1]; Exp 7 treated animal, day 19): 0.3 grams | Size of organs: Omentum ([1]; Exp 7 treated animal, day 19): 2.36 grams | Size of organs: Spleen ([1]; Exp 7 treated animal, day 19): 0.184 grams | Tumour in groin ([1]; Exp 7 treated animal, day 19): 0 grams | Dose that did not cure when begun the next day or 3 days after transplantation, relative to minimum curative dose ([1]; Exp 8): about 9 times | Smallest effective dose, in extracellular fluid ([1]; Exp 8): 0.37 µM | Start of treatment needed for complete rescue ([1]; Exp 8): The treatment had to start immediately | Outcome when therapy started 24 hours after transplantation or later ([1]; Exp 8, doses in abdomen of 36-38 μM): development of ascites or ascites with solid tumour in addition | Smallest effective (inhibiting) concentration in the peritoneum ([1]; Exp 8, injected together with the cells and then twice a week): dose was 4.8 μM. | Day 15 status [1, 4]: healthy | Day 15 weight [1, 4]: 33.9 gram | Day 15 weight/initial weight [1, 4]: 0.96 | Result (tumour growth) [1, 4]: No tumour | Section day 17 [1, 4]: No pathology found, neither ascites nor solid tumours | Section day 17 ([1]; Exp 8 mouse 1: 1.26 μl 20 mM i.p. from day 0 (42 μM i.p.), listed as 4-OH—OPB): healthy, no tumour | Day 15 status [1, 5]: healthy | Day 15 weight [1, 5]: 38.7 gram | Day 15 weight/initial weight [1, 5]: 0.97 | Section day 17 [1, 5]: No pathology found, neither ascites nor solid tumours | Section day 17 ([1]; Exp 8 mouse 2: 0.42 μl 20 mM i.p. from day 0 (14 μM i.p.), listed as 4-OH—OPB): healthy, no tumour | Day 15 status [1, 6]: healthy | Day 15 weight [1, 6]: 29.3 gram | Day 15 weight/initial weight [1, 6]: 1.1 | Section day 17 [1, 6]: No pathology was found, neither ascites nor solid tumours | Section day 17 ([1]; Exp 8 mouse 3: 0.14 μl 20 mM i.p. from day 0 (4.7 μM i.p.), listed as 4-OH—OPB): healthy, no tumour | Ascites relative to control [1, 7]: Ascites (0.66 of contr.) + solid | Day 15 status [1, 7]: Ascites | Day 15 weight [1, 7]: 37.4 gram | Day 15 weight/initial weight [1, 7]: 1.33 | Result (tumour growth) [1, 7]: Lens-sized tumour at injection site in left abdominal wall | Section day 17: ascites ([1]; Exp 8 mouse 4: 0.047 μl 20 mM i.p. from day 0 (1.6 μM i.p.), control 6.8 ml): 4.5 mL | Section day 17: ascites ([1]; Exp 8 mouse 4: 0.047 μl 20 mM i.p. from day 0 (1.6 μM i.p.), control 6.8 ml, listed as 4-OH—OPB): 4.5 ml ascites | Result (tumour growth) ([1]; Exp 8 mouse 4: 0.047 μl 20 mM i.p. from day 0 (1.6 μM i.p.), listed as 4-OH—OPB): Ascites (0.66 of contr.) + solid | Ascites relative to control [1, 8]: Ascites (0.47 of contr.) + solid | Day 15 status [1, 8]: Healthy | Day 15 weight [1, 8]: 34.5 gram | Day 15 weight/initial weight [1, 8]: 1.09 | Result (tumour growth) [1, 8]: At injection site circular branched tumour | Section day 17: ascites ([1]; Exp 8 mouse 6: 1.13 μl 20 mM i.p., first injection 24 h after tumour (37.7 μM i.p.), control 6.8 ml): 3.15 mL | Section day 17: ascites ([1]; Exp 8 mouse 6: 1.13 μl 20 mM i.p., first injection 24 h after tumour (37.7 μM i.p.), control 6.8 ml, listed as 4-OH—OPB): 3.2 ml ascites, inj. site | Result (tumour growth) ([1]; Exp 8 mouse 6: 1.13 μl 20 mM i.p., first injection 24 h after tumour (37.7 μM i.p.), listed as 4-OH—OPB): Ascites (0.47 of contr.) + solid | Tumour size, Day 8 [1, 9]: Tumour = grain | Tumour size, Day 10 [1, 9]: Tumour > grain | Ascites relative to control [1, 10]: 0.00022 % of contr. | Day 15 status [1, 10]: lens-sized | Day 15 weight [1, 10]: 30.5 gram | Day 15 weight/initial weight [1, 10]: 1.00 | Section day 17: ascites [1, 10]: 0.015 mL | Section day 17: solid tumour [1, 10]: pea-sized | Result (tumour growth) [1, 11]: Ascites; also recorded: contr.) + solid | Section day 17: ascites [1, 11]: site, 15 μl ascites, | Section day 17: solid tumour [1, 11]: Pea-size tumour at inj. | tumour in abdominal wall, findings on section ([1]; Exp 18, at killing, control 2 × 3 mm tumour): Lens sized | ascites with Ehrlich cells, findings on section ([1]; Exp 18, at killing, control 4 ml): 0.1 mL | day 14 status ([1]; Exp 18, day 14 after ip transplantation, mouse 1 killed, mice 2 and 3 marked '?'): Ascites | weight gain in % ([1]; Exp 18, one mouse each, ip: mouse 1 4-OH—OPB from day 1, mouse 2 Etoposide + 4-OH—OPB from day 1, mouse 3 Colchicine from day 0, control mouse 42.4): 32.3% | Rescue of mice from transplanted Ehrlich tumour ([1]; Exp 18): missing cure | Rescue of mice from transplanted Ehrlich tumour ([1]; Exp 18, listed as 4-OH—OPB): not rescued. Colchicine alone in high dose did | Growth in locations with high cell density [2, 12]: did not inhibit clonal growth | Growth in locations with low cell density (sparsely seeded cells) [2, 12]: full inhibition on clonal growth of sparsely seeded cells; also recorded: inhibited growth in locations with low cell density even when using low doses | Growth, summary of results after 3 days incubation [2, 13]: +++ | Growth, summary of results after 4 days incubation [2, 13]: +++ | Growth, summary of results after 3 days incubation [2, 14]: +− | Growth, summary of results after 4 days incubation [2, 14]: +− | Growth, summary of results after 3 days incubation [2, 15]: +++ | Growth, summary of results after 4 days incubation [2, 15]: +++ | Growth, summary of results after 3 days incubation [2, 16]: − | Growth, summary of results after 4 days incubation [2, 16]: − | Effect on growth in high- and low-density areas ([2]; Exp 17, 144000 S100T1 cells/well): good growth of colonies in high-density areas, but no growth in low-density areas | Clonal growth, results read on the day 14 ([2]; Exp 17, a: close to densely seeded cell areas, Low: Colchicine 0.1, Podophyllotoxin 0.3, Etoposide 20, 4-OH—OPB 0.67 μM in wells, DMSO 1.16 μl): ++ | Clonal growth, results read on the day 14 ([2]; Exp 17, a: close to densely seeded cell areas, Medium: Colchicine 0.3, Podophyllotoxin 0.9, Etoposide 60, 4-OH—OPB 2 μM in wells, DMSO 6.8 μl): ++ | Clonal growth, results read on the day 14 ([2]; Exp 17, b: sparsely seeded areas in the same agar culture, High: Colchicine 1, Podophyllotoxin 3, Etoposide 200, 4-OH—OPB 6.7 μM in wells, DMSO 29.2 μl): − | Clonal growth, results read on the day 14 ([2]; Exp 17, b: sparsely seeded areas in the same agar culture, Low: Colchicine 0.1, Podophyllotoxin 0.3, Etoposide 20, 4-OH—OPB 0.67 μM in wells, DMSO 1.16 μl): + | Clonal growth, results read on the day 14 ([2]; Exp 17, b: sparsely seeded areas in the same agar culture, Medium: Colchicine 0.3, Podophyllotoxin 0.9, Etoposide 60, 4-OH—OPB 2 μM in wells, DMSO 6.8 μl): − | Effect on growth in densely seeded areas [2, 17]: no significant inhibition | Inhibition of growth in sparsely seeded areas [2, 17]: significant at all concentrations | Clonal growth after 48 hours incubation ([2]; Exp 19, high concentration, H: high cell density part of the gradient): ++ | Clonal growth after 48 hours incubation ([2]; Exp 19, high concentration, L: low cell density part of the gradient): − | Clonal growth after 48 hours incubation ([2]; Exp 19, low concentration (exact conc. only in figure), H: high cell density part of the gradient): ++ | Clonal growth after 48 hours incubation ([2]; Exp 19, low concentration, L: low cell density part of the gradient): − | Clonal growth after 48 hours incubation ([2]; Exp 19, medium concentration, H: high cell density part of the gradient): ++ | Clonal growth after 48 hours incubation ([2]; Exp 19, medium concentration, L: low cell density part of the gradient): − | Concentration with no significant growth inhibition on denser populated areas ([2]; Exp 20): 1 to 6 µM and 1 to 18 µM | Inhibiting effect on densely seeded areas, higher doses (6-18 μM) ([2]; Exp 20): small or moderate | Inhibiting effect on densely seeded areas, low doses (1 μM) ([2]; Exp 20): abscent | Clonal growth after 48 hours ([2]; Exp 20, 4-OH—OPB 1 μM, cell number High 225000 (375′/ml), H: high cell density part): +++ | Clonal growth after 48 hours ([2]; Exp 20, 4-OH—OPB 1 μM, cell number High 225000 (375′/ml), L: low cell density part): − | Clonal growth after 48 hours ([2]; Exp 20, 4-OH—OPB 1 μM, cell number Medium 75000 (125′/ml), H: high cell density part): ++(+) | Clonal growth after 48 hours ([2]; Exp 20, 4-OH—OPB 1 μM, cell number Medium 75000 (125′/ml), L: low cell density part): − | Clonal growth after 48 hours ([2]; Exp 20, 4-OH—OPB 6 μM, cell number High 225000 (375′/ml), H: high cell density part): + | Clonal growth after 48 hours ([2]; Exp 20, 4-OH—OPB 6 μM, cell number High 225000 (375′/ml), L: low cell density part): − | Clonal growth after 48 hours ([2]; Exp 20, 4-OH—OPB 6 μM, cell number Medium 75000 (125′/ml), H: high cell density part): + | Clonal growth after 48 hours ([2]; Exp 20, 4-OH—OPB 6 μM, cell number Medium 75000 (125′/ml), L: low cell density part): − | Clonal growth after 48 hours ([2]; Exp 20, 4-OH—OPB 18 μM, cell number High 225000 (375′/ml), H: high cell density part): + | Clonal growth after 48 hours ([2]; Exp 20, 4-OH—OPB 18 μM, cell number High 225000 (375′/ml), L: low cell density part): − | Clonal growth after 48 hours ([2]; Exp 20, 4-OH—OPB 18 μM, cell number Medium 75000 (125′/ml), H: high cell density part): + | Clonal growth after 48 hours ([2]; Exp 20, 4-OH—OPB 18 μM, cell number Medium 75000 (125′/ml), L: low cell density part): −
